From ChEMBL document CHEMBL5291721, “A preclinical secondary pharmacology resource illuminates target-adverse drug reaction associations of marketed drugs” (Nat Commun, 2023)

Assays:
[1] = target: Kappa-type opioid receptor (Homo sapiens, UniProt P41145)
[2] = target: T1, Alpha-1A adrenergic receptor (Homo sapiens, UniProt P35348); type: functional, cell-based
T1 sequence (P35348 whole entry): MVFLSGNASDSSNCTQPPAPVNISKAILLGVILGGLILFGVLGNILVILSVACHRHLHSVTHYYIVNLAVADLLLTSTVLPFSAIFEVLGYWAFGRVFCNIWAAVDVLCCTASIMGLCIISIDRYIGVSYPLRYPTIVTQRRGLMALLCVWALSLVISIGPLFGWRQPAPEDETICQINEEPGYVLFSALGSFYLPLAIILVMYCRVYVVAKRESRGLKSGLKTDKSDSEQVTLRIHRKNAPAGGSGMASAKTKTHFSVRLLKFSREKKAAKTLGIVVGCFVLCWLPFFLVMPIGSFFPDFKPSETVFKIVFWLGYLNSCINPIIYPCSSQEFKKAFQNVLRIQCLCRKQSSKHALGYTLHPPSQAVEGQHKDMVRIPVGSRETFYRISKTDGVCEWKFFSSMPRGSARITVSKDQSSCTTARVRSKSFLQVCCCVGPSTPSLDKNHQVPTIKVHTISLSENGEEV

[3] = target: Gamma-aminobutyric acid receptor subunit alpha-1 (Rattus norvegicus, UniProt P62813)
Gamma-aminobutyric acid receptor subunit alpha-1, sequence (P62813 whole entry): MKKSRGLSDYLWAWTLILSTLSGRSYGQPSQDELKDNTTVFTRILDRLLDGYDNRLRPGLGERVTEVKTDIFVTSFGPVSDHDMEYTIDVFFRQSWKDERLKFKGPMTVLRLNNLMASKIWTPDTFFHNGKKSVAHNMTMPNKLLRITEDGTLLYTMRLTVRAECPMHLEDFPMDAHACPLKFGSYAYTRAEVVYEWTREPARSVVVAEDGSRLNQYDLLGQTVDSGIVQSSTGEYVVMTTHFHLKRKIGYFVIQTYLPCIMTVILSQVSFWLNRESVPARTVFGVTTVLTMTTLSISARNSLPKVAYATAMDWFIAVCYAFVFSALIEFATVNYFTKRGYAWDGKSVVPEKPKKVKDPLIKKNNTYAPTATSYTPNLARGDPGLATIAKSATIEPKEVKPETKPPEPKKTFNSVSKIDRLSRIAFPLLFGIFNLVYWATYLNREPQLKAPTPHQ

[4] = target: T2, Androgen receptor (Homo sapiens, UniProt P10275)
T2 sequence (P10275 whole entry): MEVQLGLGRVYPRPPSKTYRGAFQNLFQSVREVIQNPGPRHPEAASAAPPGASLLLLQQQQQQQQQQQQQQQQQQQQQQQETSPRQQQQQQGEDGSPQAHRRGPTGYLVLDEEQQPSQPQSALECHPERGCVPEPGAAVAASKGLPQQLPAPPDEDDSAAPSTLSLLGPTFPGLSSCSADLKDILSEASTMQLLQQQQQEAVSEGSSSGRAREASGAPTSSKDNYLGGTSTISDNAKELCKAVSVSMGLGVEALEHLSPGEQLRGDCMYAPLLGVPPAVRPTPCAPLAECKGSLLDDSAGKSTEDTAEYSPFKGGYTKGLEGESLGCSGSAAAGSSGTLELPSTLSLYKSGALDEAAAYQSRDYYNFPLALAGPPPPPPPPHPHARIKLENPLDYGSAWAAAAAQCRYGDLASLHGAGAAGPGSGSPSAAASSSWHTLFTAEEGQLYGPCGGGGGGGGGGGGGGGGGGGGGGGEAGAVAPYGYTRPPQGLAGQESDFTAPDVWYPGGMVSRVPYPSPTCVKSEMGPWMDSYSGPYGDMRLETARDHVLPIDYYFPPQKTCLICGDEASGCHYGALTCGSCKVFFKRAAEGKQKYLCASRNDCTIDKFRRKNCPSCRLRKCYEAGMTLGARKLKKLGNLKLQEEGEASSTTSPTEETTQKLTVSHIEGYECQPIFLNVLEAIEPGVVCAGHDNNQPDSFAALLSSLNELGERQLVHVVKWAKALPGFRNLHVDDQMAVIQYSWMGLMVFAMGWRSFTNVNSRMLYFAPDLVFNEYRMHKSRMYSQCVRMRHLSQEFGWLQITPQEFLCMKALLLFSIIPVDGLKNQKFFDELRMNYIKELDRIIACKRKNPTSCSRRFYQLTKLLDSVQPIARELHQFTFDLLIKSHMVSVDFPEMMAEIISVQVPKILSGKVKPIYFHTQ

[5] = target: Muscarinic acetylcholine receptor M3 (Homo sapiens, UniProt P20309)
Muscarinic acetylcholine receptor M3, sequence (P20309 whole entry): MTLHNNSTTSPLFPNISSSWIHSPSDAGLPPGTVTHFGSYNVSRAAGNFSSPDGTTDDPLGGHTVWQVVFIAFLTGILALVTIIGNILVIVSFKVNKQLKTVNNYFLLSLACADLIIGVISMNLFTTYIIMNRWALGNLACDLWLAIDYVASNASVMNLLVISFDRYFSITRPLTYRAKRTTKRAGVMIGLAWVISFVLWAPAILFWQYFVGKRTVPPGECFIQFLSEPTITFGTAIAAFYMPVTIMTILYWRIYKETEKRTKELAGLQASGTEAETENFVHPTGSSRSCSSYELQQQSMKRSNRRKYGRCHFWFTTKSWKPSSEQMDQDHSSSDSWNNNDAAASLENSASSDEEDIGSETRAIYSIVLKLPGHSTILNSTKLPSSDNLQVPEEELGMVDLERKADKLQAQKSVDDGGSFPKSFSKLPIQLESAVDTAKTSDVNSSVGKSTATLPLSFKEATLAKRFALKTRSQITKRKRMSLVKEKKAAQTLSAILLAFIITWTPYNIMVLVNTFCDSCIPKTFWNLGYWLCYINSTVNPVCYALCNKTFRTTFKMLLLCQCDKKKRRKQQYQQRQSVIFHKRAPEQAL

[6] = target: T1, Alpha-1A adrenergic receptor; type: functional, cell-based; remark: listed apart in the source
[7] = target: Growth hormone secretagogue receptor type 1 (Homo sapiens, UniProt Q92847)
Growth hormone secretagogue receptor type 1, sequence (Q92847 whole entry): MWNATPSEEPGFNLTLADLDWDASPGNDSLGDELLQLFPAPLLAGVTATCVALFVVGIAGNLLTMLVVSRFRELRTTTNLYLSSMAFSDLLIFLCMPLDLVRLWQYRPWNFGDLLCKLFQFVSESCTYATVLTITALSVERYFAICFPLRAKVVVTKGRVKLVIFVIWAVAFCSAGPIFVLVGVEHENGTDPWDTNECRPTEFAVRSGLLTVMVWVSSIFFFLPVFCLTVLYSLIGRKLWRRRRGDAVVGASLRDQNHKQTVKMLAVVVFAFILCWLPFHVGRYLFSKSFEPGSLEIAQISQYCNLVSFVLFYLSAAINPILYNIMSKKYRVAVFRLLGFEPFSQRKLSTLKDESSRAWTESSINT

[8] = target: T3, Adenosine receptor A1 (Homo sapiens, UniProt P30542)
T3 sequence (P30542 whole entry): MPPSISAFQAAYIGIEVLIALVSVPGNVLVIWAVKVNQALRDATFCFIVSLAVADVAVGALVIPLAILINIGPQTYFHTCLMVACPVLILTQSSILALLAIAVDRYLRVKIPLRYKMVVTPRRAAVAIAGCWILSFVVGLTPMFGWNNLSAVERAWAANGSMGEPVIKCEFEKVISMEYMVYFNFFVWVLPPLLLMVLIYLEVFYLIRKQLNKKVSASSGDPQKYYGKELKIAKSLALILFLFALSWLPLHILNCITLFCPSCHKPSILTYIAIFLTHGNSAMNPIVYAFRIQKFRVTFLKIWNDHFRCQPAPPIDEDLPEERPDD

[9] = target: 5-hydroxytryptamine receptor 2B (Homo sapiens, UniProt P41595); type: functional, cell-based
5-hydroxytryptamine receptor 2B, sequence (P41595 whole entry): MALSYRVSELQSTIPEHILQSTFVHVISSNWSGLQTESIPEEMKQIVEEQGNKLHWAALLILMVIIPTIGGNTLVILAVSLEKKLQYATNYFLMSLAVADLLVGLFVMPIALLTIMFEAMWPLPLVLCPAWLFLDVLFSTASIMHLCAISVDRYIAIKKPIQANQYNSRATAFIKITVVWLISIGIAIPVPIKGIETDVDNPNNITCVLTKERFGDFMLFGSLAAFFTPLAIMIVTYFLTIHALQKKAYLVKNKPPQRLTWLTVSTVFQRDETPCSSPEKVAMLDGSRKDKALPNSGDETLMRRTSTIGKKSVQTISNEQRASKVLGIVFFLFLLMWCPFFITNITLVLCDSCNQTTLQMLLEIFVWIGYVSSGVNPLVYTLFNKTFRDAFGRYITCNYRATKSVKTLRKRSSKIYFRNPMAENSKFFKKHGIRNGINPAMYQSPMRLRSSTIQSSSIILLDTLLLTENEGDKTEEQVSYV

[10] = target: T4, Type-1 angiotensin II receptor (Homo sapiens, UniProt P30556)
T4 sequence (P30556 whole entry): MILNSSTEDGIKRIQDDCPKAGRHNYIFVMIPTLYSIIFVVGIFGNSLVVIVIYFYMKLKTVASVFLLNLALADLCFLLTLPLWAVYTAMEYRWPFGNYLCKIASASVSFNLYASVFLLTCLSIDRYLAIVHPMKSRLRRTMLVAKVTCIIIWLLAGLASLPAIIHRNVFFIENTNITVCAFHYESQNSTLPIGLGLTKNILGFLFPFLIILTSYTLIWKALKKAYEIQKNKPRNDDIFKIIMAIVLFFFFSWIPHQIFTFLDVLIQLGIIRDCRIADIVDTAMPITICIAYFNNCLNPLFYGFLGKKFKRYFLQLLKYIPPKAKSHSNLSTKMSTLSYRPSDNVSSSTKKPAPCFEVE

[11] = target: Melanocortin receptor 4 (Homo sapiens, UniProt P32245)
Melanocortin receptor 4, sequence (P32245 whole entry): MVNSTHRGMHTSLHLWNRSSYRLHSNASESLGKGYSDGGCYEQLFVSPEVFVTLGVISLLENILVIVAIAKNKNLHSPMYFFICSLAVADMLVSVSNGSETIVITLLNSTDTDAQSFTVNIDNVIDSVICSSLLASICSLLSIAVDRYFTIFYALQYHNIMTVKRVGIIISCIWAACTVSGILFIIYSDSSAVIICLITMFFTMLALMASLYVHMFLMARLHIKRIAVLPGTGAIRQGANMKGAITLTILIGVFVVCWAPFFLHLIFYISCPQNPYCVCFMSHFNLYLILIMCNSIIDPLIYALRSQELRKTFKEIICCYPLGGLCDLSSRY

[12] = target: Mu-type opioid receptor (Homo sapiens, UniProt P35372)
Mu-type opioid receptor, sequence (P35372 whole entry): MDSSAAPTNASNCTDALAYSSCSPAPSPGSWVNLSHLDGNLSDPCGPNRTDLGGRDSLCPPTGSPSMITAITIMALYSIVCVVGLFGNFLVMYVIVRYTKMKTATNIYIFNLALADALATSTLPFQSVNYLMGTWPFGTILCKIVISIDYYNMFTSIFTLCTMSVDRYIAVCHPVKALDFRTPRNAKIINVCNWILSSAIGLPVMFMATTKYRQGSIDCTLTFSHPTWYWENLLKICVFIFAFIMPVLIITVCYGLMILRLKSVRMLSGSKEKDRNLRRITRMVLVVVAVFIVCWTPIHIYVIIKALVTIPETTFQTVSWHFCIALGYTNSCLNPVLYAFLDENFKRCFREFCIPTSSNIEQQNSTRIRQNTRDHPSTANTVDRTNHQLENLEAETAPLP
Note: assay procedure not described here.

Kappa-type opioid receptor, sequence (P41145 whole entry): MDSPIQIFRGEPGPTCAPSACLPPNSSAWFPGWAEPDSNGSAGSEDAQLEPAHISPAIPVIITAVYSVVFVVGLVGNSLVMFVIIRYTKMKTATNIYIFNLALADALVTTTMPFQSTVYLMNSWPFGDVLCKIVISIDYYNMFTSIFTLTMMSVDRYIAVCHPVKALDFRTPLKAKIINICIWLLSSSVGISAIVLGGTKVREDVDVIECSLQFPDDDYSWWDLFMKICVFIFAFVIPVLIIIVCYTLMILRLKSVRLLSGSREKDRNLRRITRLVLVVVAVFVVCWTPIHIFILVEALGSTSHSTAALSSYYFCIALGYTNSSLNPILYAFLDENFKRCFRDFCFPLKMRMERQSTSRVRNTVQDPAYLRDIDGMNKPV

## CN1C(=O)N(C)C2C1N(C)C(=O)N2C (centres undefined) [MEBICAR]
[1]
  AC50: > 30 µM
[2]
  AC50: > 30 µM
[3]
  AC50: > 30 µM
[4]
  AC50: > 30 µM
[5]
  AC50: > 30 µM
[6]
  AC50: > 30 µM

## NS(=O)(=O)c1cc2c(cc1Cl)NC(C1CC3C=CC1C3)NS2(=O)=O (centres undefined) [CYCLOTHIAZIDE]
[4]
  AC50: > 30 µM

## O=C(NC1CCN(CCCCC2(C(=O)NCC(F)(F)F)c3ccccc3-c3ccccc32)CC1)c1ccccc1-c1ccc(C(F)(F)F)cc1 [LOMITAPIDE]
[4]
  AC50: > 30 µM

## C[C@@H]1O[C@@H](OC[C@H]2O[C@@H](Oc3c(-c4ccc(OCCO)c(OCCO)c4)oc4cc(OCCO)cc(O)c4c3=O)[C@H](O)[C@@H](O)[C@@H]2O)[C@H](O)[C@H](O)[C@H]1O [TROXERUTIN]
[4]
  AC50: > 30 µM

## CC(C)Cc1ccc(C(C)C(=O)NO)cc1 (centres undefined) [IBUPROXAM]
[4]
  AC50: > 30 µM

## O=[N+]([O-])c1cncn1CCN1CCOCC1 [NIMORAZOLE]
[4]
  AC50: > 30 µM

## CCCC[N+]1(C)[C@@H]2C[C@@H](OC(=O)[C@H](CO)c3ccccc3)C[C@H]1[C@@H]1O[C@@H]12 (some centres undefined) [BUTYLSCOPOLAMINE]
[4]
  AC50: > 30 µM

## CCOC(=O)CC(SP(=S)(OC)OC)C(=O)OCC (centres undefined) [MALATHION]
[4]
  AC50: > 30 µM

## CC(C(=O)O)c1ccc2c(c1)Cc1cccnc1O2 (centres undefined) [PRANOPROFEN]
[4]
  AC50: > 30 µM

## COc1cc2c(cc1OC)[C@H]1C[C@@H](OC(=O)[C@@H](N)C(C)C)[C@H](CC(C)C)CN1CC2 [VALBENAZINE]
[4]
  AC50: > 30 µM

## CCO[C@@H](Cc1ccc(OCCn2c(C)ccc2-c2ccc(SC)cc2)cc1)C(=O)O [SAROGLITAZAR]
[4]
  AC50: > 30 µM

## CCS(=O)(=O)N1CC(CC#N)(n2cc(-c3ncnc4[nH]ccc34)cn2)C1 [BARICITINIB]
[4]
  AC50: > 30 µM

## Nc1nc(-n2cc(C(=O)O)c(=O)c3cc(F)c(N4CC(O)C4)c(Cl)c32)c(F)cc1F [DELAFLOXACIN]
[4]
  AC50: > 30 µM

## CN1CCC2=C(C1)c1ccccc1Cc1ccccc12 [SETIPTILINE]
[4]
  AC50: > 30 µM

## O=C1CN=C(c2ccccc2)c2c(sc3c2CCCC3)N1 [BENTAZEPAM]
[4]
  AC50: 1.24 µM

## CN1CCN(C(c2ccccc2)c2ccccc2)CC1 [CYCLIZINE]
[4]
  AC50: > 30 µM

## CCOC(=O)C(c1c(O)c2ccccc2oc1=O)c1c(O)c2ccccc2oc1=O [ETHYL BISCOUMACETATE]
[4]
  AC50: > 30 µM

## C[C@@H]1C[C@H]2[C@@H]3C[C@H](F)C4=CC(=O)C=C[C@]4(C)[C@@]3(F)[C@@H](O)C[C@]2(C)[C@@]1(O)C(=O)COC(=O)C(C)(C)C [FLUMETHASONE PIVALATE]
[4]
  AC50: 1.4 µM

## CCOc1ccc(/C=C2\NCCc3cc(OCC)c(OCC)cc32)cc1OCC [DROTAVERINE]
[4]
  AC50: > 30 µM

## NC(=O)c1cccc2cn(-c3ccc([C@@H]4CCCNC4)cc3)nc12 [NIRAPARIB]
[4]
  AC50: > 30 µM

## CCN(CC)CCNc1ccc(C)c2sc3ccccc3c(=O)c12 [LUCANTHONE]
[4]
  AC50: > 30 µM

## O=C(Nc1ccccc1)OCC(CN1CCCCC1)OC(=O)Nc1ccccc1 (centres undefined) [DIPERODON]
[7]
  AC50: > 30 µM
[1]
  AC50: 1.42 µM
[2]
  AC50: > 30 µM
[3]
  AC50: > 10 µM
[5]
  AC50: > 10 µM
[6]
  AC50: > 30 µM
[8]
  AC50: > 30 µM
[9]
  AC50: > 10 µM
[10]
  AC50: > 30 µM
[11]
  AC50: > 30 µM
[12]
  AC50: 1.8 µM

## CC(C)(N)Cc1ccc(Cl)cc1 [CHLORPHENTERMINE]
[7]
  AC50: > 30 µM
[1]
  AC50: > 10 µM
[2]
  AC50: > 30 µM
[3]
  AC50: > 10 µM
[5]
  AC50: > 30 µM
[6]
  AC50: > 30 µM
[8]
  AC50: > 30 µM
[9]
  AC50: > 10 µM
[10]
  AC50: > 30 µM
[11]
  AC50: > 30 µM
[12]
  AC50: > 30 µM

## O=C(O)CCCN1CCC(O[C@@H](c2ccc(Cl)cc2)c2ccccn2)CC1 [BEPOTASTINE]
[4]
  AC50: > 30 µM

## N/N=c1/cc2c(n[nH]1)CCN(C(=O)c1ccccc1)C2 [ENDRALAZINE]
[1]
  AC50: > 30 µM
[2]
  AC50: > 30 µM
[3]
  AC50: > 30 µM
[4]
  AC50: > 30 µM
[5]
  AC50: > 30 µM
[6]
  AC50: > 30 µM
[9]
  AC50: > 30 µM

## O=C(c1ccc(F)c(F)c1Nc1ccc(I)cc1F)N1CC(O)([C@@H]2CCCCN2)C1 [COBIMETINIB]
[4]
  AC50: > 30 µM

## Cc1c(O)cccc1C(=O)N[C@@H](CSc1ccccc1)[C@H](O)CN1C[C@H]2CCCC[C@H]2C[C@H]1C(=O)NC(C)(C)C
[4]
  AC50: > 30 µM

## C[C@@H]1C[C@H]2[C@@H]3C[C@H](F)C4=CC(=O)C(Cl)=C[C@]4(C)[C@@]3(F)[C@@H](O)C[C@]2(C)[C@@]1(O)C(=O)CO [HALOMETASONE]
[4]
  AC50: 10.3 µM

## C1N2CN3CN1CN(C2)C3 [METHENAMINE]
[4]
  AC50: > 30 µM

## CS(=O)(=O)Nc1cc2occ(NC=O)c(=O)c2cc1Oc1ccccc1 [IGURATIMOD]
[4]
  AC50: > 30 µM
[9]
  AC50: > 30 µM

## Cc1nc(-c2ccc(OCC(C)C)c(C#N)c2)sc1C(=O)O [FEBUXOSTAT]
[4]
  AC50: > 30 µM

## COc1ccc(CCC(C)NCC(O)c2ccc(O)c([S+](C)[O-])c2)cc1 (centres undefined) [SULFINALOL]
[4]
  AC50: > 30 µM
